Test results: US20130244255A1, “ANTIBODIES DIRECTED TO GPNMB AND USES THEREOF” (priority 2006, published 2013)

Columns and labels:
[1] = system: human interleukin-8; assay: Plasma human IL-8 (ELISA) in SK-MEL-2 xenograft-bearing athymic mice; format: in vivo
Protocol: Interleukin-8 (IL-8) was measured by an enzyme-linked immunosorbent assay using a commercial kit (Human CXCL8/IL-8 Quantikine ELISA Kit, 3rd Generation; R&D Systems, Minneapolis, Minn.), which recognizes human, but not mouse, IL-8. Assays were conducted according to the manufacturer's instructions in which the IL-8 was detected by binding to IL-8 specific mAb pre-coated onto 96-well microliter plate. Standards and samples were pipetted into the wells and human IL-8 was bound by the immobilized antibody. After washing away the unbound substances, horseradish peroxidase-conjugated IL-8 specific polyclonal antibody was added to the wells. Following a wash, substrate solution was added and color developed; the plate was read on an ELISA plate reader. Results were calculated from a standard curve, generated by a four-parameter logistic curve fit, and expressed in picograms per milliliter. The lower limit of quantitation of the assay was 3.5 pg/mL and for each timepoint, n=3 mice. No human IL-8 could be detected in the blood of normal (non-tumor-bearing) athymic mice.
Plasma concentrations of human IL-8 were measured by the species-specific ELISA assay described in Materials and Methods. At the beginning of treatment (day 16), the human IL-8 level in plasma was 29.8 pg/ml. […] At day 30 (14 days after treatment), plasma IL-8 level was not detected and remained undetectable for the duration of the experiment (FIG. 26).

[2] = system: HEK293 cells; assay: Clonogenic assay, HEK293 cells transfected with GPNMB or empty vector; format: cell-based, human; details: 96 hours treatment
Protocol: Cells were plated in 96-well plates and allowed to recover overnight. […] The cells were then transferred into 6-well plates and allowed to form colonies. Colonies were stained with Giemsa stain (Sigma) and counted. The surviving cell fractions were calculated based upon the ratio of the treated sample and the untreated control. The results were expressed as a percentage of control using GraphPad Prism Version 4 software.
Immunoblot (FIG. 9A) and FACS (FIG. 9B) analyses confirmed that GPNMB was expressed in GPNMB/plasmid transfected cells.

[3] = system: DEL; assay: Clonogenic assay (methylcellulose) with 1.15.1-AE; format: cell-based, human
Protocol: Lymphoma or leukemia cell lines were mixed with methylcellulose base media (R&D Systems, USA) and in various concentrations of unconjugated and Auristatin E-conjugated 1.15.1 antibody before plating onto 6-well tissue culture plates (Becton Dickinson, Franklin Lakes, N.J., USA). […] Plates were incubated at 37° C. and examined daily. On days 14-18, colonies on the plates were counted.

[4] = system: SK-MEL-2 human melanoma xenograft; assay: SK-MEL-2 human melanoma xenograft in athymic mice; format: in vivo; details: observation period >200 days
[5] = system: TK-10 control cells; assay: Apoptosis analysis (Annexin V-FITC / PI); format: cell-based, human; details: TK-10, 48 hour, 1000 ng/mL
Protocol: (§1) Briefly, cells were pulsed at the indicated times with 30 μM of bromodeoxyuridine (BrdU, Sigma) for 30 min, harvested, fixed and permeabilized in methanol. Nascent DNA synthesis was detected by anti-bromodeoxyuridine-FITC (BD Biosciences, San Jose, Calif.) staining. Total DNA content was detected using propidium iodide (PI, Sigma). For apoptosis analysis, cells were treated as above and labeled with Annexin V-FITC followed by propidium iodide exclusion using the Annexin V-FITC Apoptosis Detection kit I (BD PharMingen, San Diego, Calif.) according to the manufacturer's protocols. Flow cytometry (as described in the previous Example) was used to assay both cell cycle and apoptosis studies.
(§2) To investigate this possibility, analysis of apoptosis using Annexin-V surface binding and loss of propidium iodide (PI) exclusion was performed.

[6] = system: SK-Mel-2 cells; assay: Apoptosis analysis (Annexin V-FITC / PI); format: cell-based, human; details: SK-Mel-2, 48 hour, 1000 ng/mL
Protocol: as §1, §2

In the case of “CR011-vcMMAE: CR011 conjugated to monomethyl auristatin E through a protease cleavable valine-citrulline linker; approx. 4 drugs per antibody”, the “plasma IL-8 level” value ([1]; 1 mg/kg single bolus, day 17.5 (1.5 days after treatment)) is reported as 46.3 pg/mL, the “plasma IL-8 level” value ([1]; 1 mg/kg single bolus, day 58 (42 days after treatment)) is reported as 414.63 pg/mL and the “plasma IL-8 level” value ([1]; 10 mg/kg single bolus, day 17.5 (1.5 days after treatment)) is reported as 52.85 pg/mL. For the same substance, the “plasma IL-8 level” value ([1]; 10 mg/kg single bolus, day 23 (7 days after treatment)) was 24.39 pg/mL, the “plasma IL-8 level” value ([1]; 10 mg/kg single bolus, day 30 (14 days after treatment) and after, lower limit of quantitation 3.5 pg/mL) was “not detected” and the “sensitivity of GPNMB-expressing HEK293 cells vs control cells to growth-inhibition” value [2] was “more sensitive”. For the same substance, the “Clonogenic Assay with 1.15.1-AE IC50 in ng/mL” value [3] was “No effect” and the “re-growth of completely regressed tumors” value [4] was “did not re-grow”.
With “CR011: fully human monoclonal antibody that specifically binds to GPNMB; VH SEQ ID NO: 20, VL SEQ ID NO: 29” the “% AnnV+/PI+ UR” value [5] was 0.34%, the “% AnnV+/PI− LR” value [5] was 0.55% and the “% AnnV−/PI+ UL” value [5] was 0.83%. The “% AnnV+/PI+ UR” value [6] was 0.45%, the “% AnnV+/PI− LR” value [6] was 4.74% and the “% AnnV−/PI+ UL” value [6] was 0.36%.
